Assay results from patent publication US9783499B2, “Quinoline derivatives and their applications” (Shenyang Pharmaceutical University, priority 2012, dated 2017).

What was measured:
[1] = system: human tumor cell lines (such as human lung cancer cells, human gastric cancer cells, etc.); settings: cited from earlier work
[2] = system: H460 (human lung cancer cell); assay: In vitro anti-tumor cellular activity (MTT), H460; format: cell-based; settings: 72 hours
Protocol: (§1) After pouring the cell dissociation buffer to the centrifugetube, nutrient solution was added to stop digestion. The centrifugetube were centrifuged for 10 min under 800 r/min, the liquid supernatant was removed, 5 mL culture solution was added, after mixing by pipetting the cell, took 10 μL cell suspension to the cell counting plat, and adjusted the cell concentration to 10^4/well. Among the 96 wells, A1 is empty, 100 μL of cell suspension were added to the other wells. The 96 well plates were incubated in the incubator for 24 h. […] The 96-well plates were placed in an incubator and cultivated for 72 hours. (3) The culture media containing the compounds in the 96-well plates was discarded, and the cells were washed with phosphate buffered solution (PBS) twice. Each well was added with 100 μL MTT (tetrazole) (0.5 mg/mL), and then placed in an incubator to incubate for 4 hours, after which MTT solution was discarded and 100 μL dimethyl sulfoxide was added thereto.

[3] = system: HT-29 (colon cancer cell); assay: In vitro anti-tumor cellular activity (MTT), HT-29; format: cell-based; settings: 72 hours
Protocol: as §1

[4] = system: MDA-MB-231 (human beast cancer cell); assay: In vitro anti-tumor cellular activity (MTT), MDA-MB-231; format: cell-based; settings: 72 hours
Protocol: as §1

[5] = system: SMMC-7721 (hepatoma cell); assay: In vitro anti-tumor cellular activity (MTT), SMMC-7721; format: cell-based; settings: 72 hours
Protocol: as §1

[6] = system: U87MG (Human malignant glioblastoma cell); assay: In vitro anti-tumor cellular activity (MTT), U87MG; format: cell-based; settings: 72 hours
Protocol: as §1

[7] = system: MKN-45 (human gastric carcinoma cell); assay: In vitro anti-tumor cellular activity (MTT), MKN-45; format: cell-based; settings: 72 hours
Protocol: as §1

## COc1cc2c(Oc3ccc(NC(=O)C4(C(=O)Nc5ccc(F)cc5)CC4)cc3F)ccnc2cc1OCCCN1CCOCC1 [Foretinib]
[1]
  IC50 against a variety of human tumor cell lines: about 0.004 mg/mL

## COc1cc2c(Oc3ccc(NC(=O)N/N=C/c4ccccc4)cc3F)ccnc2cc1OCCCN1CCN(C)CC1 [Example 4, (E)-N^1-(3-fluoro-4-(6-methoxy-7-(3-(4-methylpiperazin-1-yl)propoxy)quinoline-4-lyoxy)phenyl)-N^4-(benzaldehyde)semicarbazone]
[2]
  H460 IC50: 0.084 µg/mL
[3]
  HT-29 IC50: 0.093 µg/mL
[4]
  MDA-MB-231 IC50: 0.066 µg/mL
[5]
  SMMC-7721 IC50: 0.23 µg/mL
[6]
  U87MG IC50: 0.25 µg/mL
[7]
  MKN-45 IC50: 0.11 µg/mL
